Assay: xn = mol fraction of the nth substance listed
Settings: Liquid, Other PVT measurement

CCCCn1cc[n+](C)c1.F[B-](F)(F)F [1-butyl-3-methylimidazolium tetrafluoroborate] + c1ccccc1
mass density [kg/m3]
Settings | x1 = 0.5 | x1 = 0.5999 | x1 = 0.7001 | x1 = 0.8 | x1 = 0.8999 | x1 = 1
313.15 K, 200 kPa | 1111 | 1129 | 1145 | 1158 | 1172 | 1185
313.15 K, 600 kPa | 1111 | 1130 | 1145 | 1158 | 1172 | 1186
313.15 K, 1000 kPa | 1111 | 1130 | 1146 | 1158 | 1173 | 1186
313.15 K, 1400 kPa | 1111 | 1131 | 1146 | 1159 | 1173 | 1186
313.15 K, 1800 kPa | 1111 | 1131 | 1147 | 1159 | 1173 | 1187
313.15 K, 2000 kPa | 1111 | 1132 | 1147 | 1159 | 1173 | 1187
353.15 K, 200 kPa | 1082 | 1102 | 1118 | 1131 | 1145 | 1159
353.15 K, 600 kPa | 1082 | 1103 | 1118 | 1131 | 1145 | 1160
353.15 K, 1000 kPa | 1083 | 1103 | 1118 | 1131 | 1145 | 1160
353.15 K, 1400 kPa | 1083 | 1103 | 1118 | 1132 | 1146 | 1160
353.15 K, 1800 kPa | 1084 | 1104 | 1119 | 1132 | 1146 | 1161
353.15 K, 2000 kPa | 1084 | 1104 | 1119 | 1132 | 1146 | 1161
393.15 K, 600 kPa | 1055 | 1076 | 1092 | 1106 | 1120 | 1135
393.15 K, 1000 kPa | 1055 | 1076 | 1092 | 1106 | 1120 | 1135
393.15 K, 1400 kPa | 1055 | 1077 | 1092 | 1106 | 1120 | 1135
393.15 K, 1800 kPa | 1056 | 1077 | 1092 | 1106 | 1121 | 1136
393.15 K, 2000 kPa | 1056 | 1078 | 1093 | 1106 | 1121 | 1136
433.15 K, 1400 kPa | 1028 | 1050 | 1066 | 1080 | 1096 | 1112
433.15 K, 1800 kPa | 1029 | 1050 | 1067 | 1081 | 1096 | 1113
433.15 K, 2000 kPa | 1029 | 1051 | 1067 | 1081 | 1096 | 1113

— the NIST ThermoML archive (doi:10.1021/je900048r)
